Assay results reported in PMC9385959, “Mammalian derived lipocalin and secretoglobin respiratory allergens strongly bind ligands with potentially immune modulating properties” (Frontiers in Allergy, 2022).
Like-named read-outs stand apart in the source and are kept apart here.

How the values were obtained:
Ory c 3 = Ory c 3 (Oryctolagus cuniculus, UniProt Q9GK63+Q9GK67); experiment: Competitive fluorescence-quenching assay, Ory c 3; assay type: binding, rabbit; conditions: for inhibition at 50 µM: read-out: Mean fluorescence inhibition
Procedure: (§1) Fluorescence quenching assays were performed as previously described ([45]), with modifications. Fluorochromes and ligands were purchased from Sigma Aldrich (Steinheim, Germany), Carl Roth (Karlsruhe, Germany) and TCI Europe N.V. (Zwijndrecht, Belgium).
(§2) Stock solutions were prepared at a concentration of 10 mM in 100% ethanol for the fluorochromes 1-aminoanthracene (1-AMA), 8-anilino-1-naphthalensulfonic acid (1,8-ANS) and for all ligands, and in 100% methanol for n-phenyl-1-naphthylamine (1-NPN), respectively. Iron catecholate ligands (siderophores) were prepared as previously described ([46]). Fluorochrome-protein complexes were analyzed at an equimolar concentration of 5 μM in PBS with 5% ethanol in a volume of 100 μL per well in black 96-well non-binding microplates (Greiner Bio-One GmbH, Frickenhausen, Germany). Solutions containing only protein or the respective fluorescent probe in PBS with 5% ethanol served as controls. Fluorochrome-protein complexes were incubated with orbital shaking for 10 min at 500 rpm at room temperature (RT) before measurement using the fluorescence reader TECAN Infinite 200 Pro (Tecan Trading AG, Switzerland). Excitation wavelengths were fixed at 380 nm for 1-AMA and 1,8-ANS, and 337 nm for 1-NPN. Fluorescence emission spectra were recorded in 5 nm steps between 420 and 560 nm for 1-AMA and 1,8-ANS and between 380 and 500 nm for 1-NPN. The establishment of fluorescent quenching assay parameters for each allergen is explained in the results Section Fluorescence-quenching assay set up. Binding affinities were analyzed by non-linear regression in GraphPad Prism Version 9.3.1 (GraphPad Software, LLC). For the ligand competition assays, ligands were added to fluorochrome-allergen complexes with a final buffer composition of 5% ethanol in PBS in a volume of 100 μL and incubated for 30 min at 500 rpm at RT and further equilibrated for another 30 min without shaking before fluorescence measurement.
(§3) The binding affinities of non-fluorescent ligands is inferred to by their ability to compete and displace the fluorochromes bound to the allergen at a certain concentration. This leads to a measurable decrease in fluorescence intensity that will be expressed as fluorescence inhibition (Figure 6). For a given allergen, the ligand with the strongest inhibition has the highest binding affinity. […] Competitive ligand binding was analyzed by non-linear regression and inhibitory dissociation constants (Ki) were calculated.

Fel d 1 = biological target: T1, Fel d 1 (Felis catus, UniProt P30438+P30440); experiment: Competitive fluorescence-quenching assay, Fel d 1; assay type: binding, cat; conditions: for Ki: Ligand inhibition constant Ki
T1 construct: polyhistidine tag (C); made in house; host or cells: E. coli Rosetta-gami 2
T1 sequence (P30438+P30440 with tags, fused parts or gaps): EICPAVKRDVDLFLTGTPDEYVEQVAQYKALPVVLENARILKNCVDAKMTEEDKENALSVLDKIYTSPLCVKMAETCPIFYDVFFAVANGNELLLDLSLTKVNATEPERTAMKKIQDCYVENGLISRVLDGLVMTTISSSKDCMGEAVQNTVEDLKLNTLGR
Procedure: as §1, §2, §3

Cav p 1.0101 = Cav p 1.0101 (Cavia porcellus, UniProt A0A484HM70, S19A); experiment: Competitive fluorescence-quenching assay, Cav p 1.0101; assay type: binding, guinea pig; conditions: for Mean fluorescence inhibition / inhibition at 50 µM: 5 μM Cav p 1.0101-1-AMA complex, 50 μM ligand, n = 2
Procedure: as §1, §2, §3

Cav p 1.0201 = Cav p 1.0201 (Cavia porcellus, UniProt A0A484HRI4); experiment: Competitive fluorescence-quenching assay, Cav p 1.0201; assay type: binding, guinea pig; conditions: for Mean fluorescence inhibition / inhibition at 50 µM: 5 μM Cav p 1.0201-1-AMA complex, 50 μM ligand, n = 2
Procedure: as §1, §2, §3

Ory c 2 = experiment: Competitive fluorescence-quenching assay, Ory c 2; assay type: binding, rabbit; conditions: for Mean fluorescence inhibition: 5 μM Ory c 2-1-AMA complex, 50 μM ligand, n = 2
Procedure: as §1, §2, §3

Fel d 4 = biological target: T2, Fel d 4 (Felis catus, UniProt Q5VFH6); experiment: Competitive fluorescence-quenching assay, Fel d 4; assay type: binding, cat; conditions: for inhibition at 100 µM: read-out: Mean fluorescence inhibition
T2 construct: polyhistidine tag (C); made in house; host or cells: E. coli Rosetta-gami 2
T2 sequence (Q5VFH6 16-186): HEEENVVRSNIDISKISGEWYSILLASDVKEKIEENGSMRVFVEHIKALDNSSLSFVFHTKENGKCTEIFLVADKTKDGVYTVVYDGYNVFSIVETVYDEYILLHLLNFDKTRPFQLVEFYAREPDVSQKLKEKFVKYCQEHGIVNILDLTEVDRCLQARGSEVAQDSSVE
Procedure: as §1, §2, §3

Can f 6 = biological target: T3, Can f 6 (Canis lupus familiaris, UniProt H2B3G5); experiment: Competitive fluorescence-quenching assay, Can f 6; assay type: binding, dog; conditions: read-out: Mean fluorescence inhibition
T3 construct: polyhistidine tag (C); made in house; host or cells: E. coli Rosetta-gami 2
T3 sequence (H2B3G5 16-190): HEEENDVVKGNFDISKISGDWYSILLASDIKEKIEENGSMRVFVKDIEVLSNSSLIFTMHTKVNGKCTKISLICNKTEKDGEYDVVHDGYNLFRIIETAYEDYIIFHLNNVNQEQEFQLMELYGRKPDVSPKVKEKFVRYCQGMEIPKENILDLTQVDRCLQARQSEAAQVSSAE
Procedure: as §1, §2, §3

Can f 1 = biological target: T4, Can f 1 (Canis lupus familiaris, UniProt O18873); experiment: Competitive fluorescence-quenching assay, Can f 1; assay type: binding, dog; conditions: 5 μM Can f 1-1,8-ANS complex, 50 μM ligand, n = 2; read-out: Mean fluorescence inhibition
T4 construct: made in house; host or cells: E. coli Rosetta-gami 2(DE3)
Procedure: as §1, §2, §3

human LCN1 = biological target: T5, human LCN1 (Homo sapiens, UniProt P31025); experiment: Competitive fluorescence-quenching assay, LCN1; assay type: binding; conditions: 5 μM LCN1-1,8-ANS complex, 50 μM ligand, n = 2
T5 construct: made in house; host or cells: E. coli Rosetta-gami 2(DE3)
Procedure: as §1, §2, §3

[1] = read-out: Mean fluorescence inhibition, 5 μM Fel d 1 + 1,8-ANS complex, 100 μM ligand
[2] = read-out: Mean fluorescence inhibition, 5 μM Fel d 1 + 1-NPN complex, 100 μM ligand
[3] = 5 μM Ory c 3-1-AMA complex, 50 μM ligand, n = 2
[4] = 5 μM Fel d 4-1-NPN complex, 100 μM ligand
[5] = 5 μM Can f 6-1-NPN complex, 100 μM ligand, high standard error
[6] = 5 μM Fel d 1 + 1,8-ANS complex, 100 μM ligand, read-out: Mean fluorescence inhibition
[7] = 5 μM Fel d 1 + 1-NPN complex, 100 μM ligand, read-out: Mean fluorescence inhibition

For `CCCCCCCCCCCC(=O)O` [Dodecanoic acid, dodecanoic acid], the inhibition at 50 µM (Ory c 3) was 76.2%, the Ki (Fel d 1; 5 μM Fel d 1, fluorochrome 1,8-ANS) was 26.7 µM and the Ki (Fel d 1; 5 μM Fel d 1, fluorochrome 1-NPN) was 14.4 µM. For the same compound, the inhibition at 100 µM (Fel d 1; [1]) was 75.2% and the inhibition at 100 µM (Fel d 1; [2]) was 91.7%.

For monophosphoryl lipid A [MPLA], the Mean fluorescence inhibition (Ory c 3; [3]) was “more than half”, the Mean fluorescence inhibition (Cav p 1.0101) was “more than half” and the Mean fluorescence inhibition (Cav p 1.0201) was “more than half”.

For `CC(C)c1cccc(O)c1` [3-Isopropylphenol, 3-ilsopropylphenole], the Mean fluorescence inhibition (Ory c 2) was 89.5%, the inhibition at 100 µM (Fel d 4; [4]) was 89.5% and the inhibition at 50 µM (Cav p 1.0101) was 55.3%. For the same compound, the inhibition at 100 µM (Can f 6; [5]) was 107% and the inhibition at 50 µM (Cav p 1.0201) was 75.7%.

For `CC1=C(/C=C/C(C)=C/C=C/C(C)=C/CO)C(C)(C)CCC1` [Retinol, retinol], the inhibition at 50 µM (Can f 1) was 49% and the inhibition at 50 µM (human LCN1) was 84.3%.

`CC(C)=CCCC(C)=CC#N` [Geranyl nitrile, geranyl nitrile] was tested, and the Mean fluorescence inhibition (Ory c 2) was 91.2%, the Mean fluorescence inhibition (Cav p 1.0101) was 57.4% and the Mean fluorescence inhibition (Cav p 1.0201) was 89.1%.

For `C[C@]12CC[C@H]3[C@@H](CCC4=CC(=O)CC[C@@]43C)[C@@H]1CC[C@@H]2O` [Testosterone, testosterone], the inhibition at 100 µM (Fel d 4) was 92.2%, the Mean fluorescence inhibition (Cav p 1.0101) was “not observed” and the inhibition at 100 µM (Can f 6) was 43.7%. The Mean fluorescence inhibition (Cav p 1.0201) was “not observed”.

`CCCCCCCCCCCCCCO` [Tetradecanol, tetradecanol] showed a Mean fluorescence inhibition (Ory c 2) of 55.4%, a Mean fluorescence inhibition (Ory c 3; [3]) of 92.9% and a Mean fluorescence inhibition (Cav p 1.0101) of 82.4%. The Mean fluorescence inhibition (Fel d 1; 5 μM Fel d 1 + 1,8-ANS complex, 100 μM ligand) was 0.0% and the Mean fluorescence inhibition (Cav p 1.0201) was 97.9%.

For `CCCCCCCCCCO` [1-Decanol, 1-decanol], the Mean fluorescence inhibition (Ory c 2) was 75.1%, the Ki (Ory c 3) was 0.7 µM and the inhibition at 50 µM (Ory c 3; [3]) was 98%. The inhibition at 50 µM (Cav p 1.0101) was 99%, the Ki (Cav p 1.0101; Ligand inhibition constant Ki, 5 μM Cav p 1.0101, fluorochrome 1-AMA) was 0.8 µM and the inhibition at 100 µM (Fel d 1; [1]) was 68.4%. The Ki (Cav p 1.0201) was 1.1 µM and the inhibition at 50 µM (Cav p 1.0201) was 98.2%.

With `CC(C)CCCC(C)CCO` (centres unmarked) [3,7-dimethyl-1-octanol] the Mean fluorescence inhibition (Ory c 2) was 72.5%, the inhibition at 100 µM (Fel d 4; [4]) was 89.5% and the inhibition at 50 µM (Ory c 3; [3]) was 91.1%. The inhibition at 50 µM (Cav p 1.0101) was 96.4%, the inhibition at 100 µM (Can f 6; [5]) was 100% and the inhibition at 100 µM (Fel d 1; [6]) was 58.3%. The inhibition at 100 µM (Fel d 1; [7]) was 85.4% and the inhibition at 50 µM (Cav p 1.0201) was 80.3%.

In the case of `CCCc1ccc(O)cc1` [4-Propylphenol, 4-propylphenol], the Ki (Ory c 2; 5 μM Ory c 2, fluorochrome 1-AMA, read-out: Ligand inhibition constant Ki) is reported as 2.6 µM, the Mean fluorescence inhibition (Ory c 2) is reported as 93.2% and the inhibition at 50 µM (Ory c 3; [3]) is reported as 93.2%. It also gave an inhibition at 50 µM (Cav p 1.0101) of 65.7%, an inhibition at 100 µM (Fel d 1; [1]) of 52.8% and an inhibition at 100 µM (Fel d 1; [2]) of 65.3%. The inhibition at 50 µM (Cav p 1.0201) was 57%.

`CC(C)c1ccccc1O` [2-Isopropylphenol, 2-isopropylphenol] was tested, and the Ki (Fel d 4; 5 μM Fel d 4, fluorochrome 1-NPN, to be interpreted with caution, imprecise Ki values, read-out: Ligand inhibition constant Ki) was 20.1 µM, the inhibition at 100 µM (Fel d 4; [4]) was 99.5% and the inhibition at 100 µM (Can f 6; [5]) was 105%.

`CCCCCCCCO` [Caprylic alcohol, 1-octanol] gave a Mean fluorescence inhibition (Ory c 2) of 65.3%, an inhibition at 50 µM (Ory c 3; [3]) of 68.8% and an inhibition at 50 µM (Cav p 1.0101) of 86.7%. For the same compound, the inhibition at 100 µM (Fel d 1; [6]) was 56.5%, the inhibition at 100 µM (Fel d 1; [7]) was 49.2% and the inhibition at 50 µM (Cav p 1.0201) was 82.1%.
